B1: M.EcoVIII (Escherichia coli) (protein)
chain: MLNKIQLPDEIKKNTVTNGNSISLIKKLPSQYAHLILSDIPYGIGAEDWDVLHNNSNNAYLGSSPAQKNAGAIFKKRGKPINGWSEADKKIPLEYQQWCEEWATEWFRVLKPGASAIIFAGRRFSHRCICAMEDAGFNLRDIIAWMRVKAPHRAQRLSCVYERRGDTLNAEKWNGWRVGNLQPTFEPILWFSKPYKIGGTIADNAIIHGVGAYNQDAFVARNGKPENVITAGFSSNESGLHPTQKPVALMKTLIELTTQKGQLVIDPFSGSGSTLVAAKDLGRDYIGFEINPTYVETSIKRLNK

Legend:
M.LlaCI = target: T1, M.LlaCI (Lactococcus lactis, UniProt O86267); experiment: radiometric [3H]methyl transfer to DNA; format: biochemical; conditions: 0.2 µM [methyl-3H]SAM, 0.15 µM ds oligo (AAGCTT site), 10 mM Tris-HCl pH 7.0, 37 °C, 1 h; labelled compound
T1 construct: gene mllaci

M.HindIII = target: T2, M.HindIII (Haemophilus influenzae, UniProt P43871); conditions: 0.2 µM [methyl-3H]SAM, 0.15 µM ds oligo (AAGCTT site), 10 mM Tris-HCl pH 7.0, 37 °C, 1 h; labelled compound
T2 construct: gene hindIIIM

purified protein = substrate: C[S+](CC[C@H](N)C(=O)O)C[C@H]1O[C@@H](n2cnc3c(N)ncnc32)[C@H](O)[C@@H]1O; experiment: purified protein; conditions: 10 µM unmethylated ds oligo AAGCTT1/AAGCTT2 (AAGCTT site), 10 mM Tris-HCl pH 7.0, 37 °C, 5 min, 135 nM enzyme, labelled compound

T2 sequence (P43871 whole entry): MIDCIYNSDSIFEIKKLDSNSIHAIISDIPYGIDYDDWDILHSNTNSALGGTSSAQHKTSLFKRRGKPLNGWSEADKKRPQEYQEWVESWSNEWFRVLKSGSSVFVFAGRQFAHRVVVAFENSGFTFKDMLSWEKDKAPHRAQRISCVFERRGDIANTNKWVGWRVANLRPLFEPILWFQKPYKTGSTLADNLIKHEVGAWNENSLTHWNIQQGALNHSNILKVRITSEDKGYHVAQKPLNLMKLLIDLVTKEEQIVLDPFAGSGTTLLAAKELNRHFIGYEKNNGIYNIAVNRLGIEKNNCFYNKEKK
T1 sequence (O86267 1-296): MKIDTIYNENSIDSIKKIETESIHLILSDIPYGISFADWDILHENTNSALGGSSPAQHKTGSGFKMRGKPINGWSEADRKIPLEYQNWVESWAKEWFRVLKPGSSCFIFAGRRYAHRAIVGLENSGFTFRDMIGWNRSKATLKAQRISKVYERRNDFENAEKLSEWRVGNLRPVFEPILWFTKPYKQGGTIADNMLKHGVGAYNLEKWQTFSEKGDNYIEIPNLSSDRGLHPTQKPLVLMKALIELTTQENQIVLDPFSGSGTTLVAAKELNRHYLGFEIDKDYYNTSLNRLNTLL

Molecule | radiometric [3H]methyl transfer to DNA (M.LlaCI) | radiometric [3H]methyl transfer to DNA (M.HindIII) | Km (purified protein) [µM]
C[S+](CC[C@H](N)C(=O)O)C[C@H]1O[C@@H](n2cnc3c(N)ncnc32)[C@H](O)[C@@H]1O (stereo partly drawn) [AdoMet] | monitoring transfer of the radioactively labelled methyl groups from [^3H]AdoMet to DNA | monitoring transfer of the radioactively labelled methyl groups from [^3H]AdoMet to DNA | –
B1 | – | – | 0.27 ± 0.006

Source: article PMC5974420, “Isospecific adenine DNA methyltransferases show distinct preferences towards DNA substrates” (Scientific Reports, 2018)
